Measurements as given in publication PMC3264828 (European Journal of Medicinal Chemistry, 2011).

Legend:
D1-like receptors [1] = molecular target: D1-like receptors (Sus scrofa, UniProt P50130); assay: Competition binding with [3H]SCH-23390 in porcine striatal homogenates; conditions: porcine striatal preparations; for decrease in D1 affinity compared to 2: relative to DOX (2)
[2] = molecular target: D1 dopamine receptor mutant L190A (Homo sapiens, UniProt P21728, L190A); assay: Mutagenesis experiments of the D1 dopamine receptor; type: binding; conditions: residue in extracellular loop 2; to be published elsewhere
D1-like receptors [3] = conditions: cited from earlier work
D1 receptor = conditions: cited from earlier work
[4] = tested on: in vivo model of Parkinson's disease; conditions: African green monkeys; cited from earlier work
prefrontal cortex = conditions: cited from earlier work
aged monkeys = conditions: cited from earlier work
D1 = conditions: 2-substituted DHX analogues; cited from earlier work

Chain of D1-like receptors (Sus scrofa, UniProt P50130) (P50130 whole entry): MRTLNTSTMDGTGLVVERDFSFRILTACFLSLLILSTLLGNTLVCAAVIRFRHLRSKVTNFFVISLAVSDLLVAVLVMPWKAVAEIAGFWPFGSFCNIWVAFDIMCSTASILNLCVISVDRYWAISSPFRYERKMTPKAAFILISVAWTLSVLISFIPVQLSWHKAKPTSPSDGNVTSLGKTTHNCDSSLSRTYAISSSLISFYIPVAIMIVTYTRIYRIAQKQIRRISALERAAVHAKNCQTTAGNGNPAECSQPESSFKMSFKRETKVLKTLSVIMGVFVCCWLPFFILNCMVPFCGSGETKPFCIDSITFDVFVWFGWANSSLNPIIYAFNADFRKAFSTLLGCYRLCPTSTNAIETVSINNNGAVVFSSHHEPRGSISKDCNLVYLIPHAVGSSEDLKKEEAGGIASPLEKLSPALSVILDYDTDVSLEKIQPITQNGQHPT
Chain of D1 dopamine receptor mutant L190A (P21728 whole entry L190A): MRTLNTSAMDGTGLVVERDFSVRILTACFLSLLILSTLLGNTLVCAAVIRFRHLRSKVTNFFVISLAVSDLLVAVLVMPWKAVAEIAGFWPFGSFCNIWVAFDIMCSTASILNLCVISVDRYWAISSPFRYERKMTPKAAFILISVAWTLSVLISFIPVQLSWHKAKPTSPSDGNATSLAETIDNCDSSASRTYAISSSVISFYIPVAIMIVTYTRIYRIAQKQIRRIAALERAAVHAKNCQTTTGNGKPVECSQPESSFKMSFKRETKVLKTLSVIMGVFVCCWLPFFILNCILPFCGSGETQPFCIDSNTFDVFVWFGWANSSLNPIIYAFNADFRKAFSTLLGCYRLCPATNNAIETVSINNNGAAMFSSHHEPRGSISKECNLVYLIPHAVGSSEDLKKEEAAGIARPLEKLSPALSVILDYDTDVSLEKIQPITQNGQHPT

Cc1ccc2c(c1)[C@@H]1c3cc(O)c(O)cc3OC[C@H]1NC2.Cl (racemic) [5a, (±)-Trans-11-methyl-2,3-dihydroxy-6a,7,8,12b-tetrahydro-6H-chromeno[3,4-c]isoquinoline hydrobromide]
decrease in D1 affinity compared to 2 (D1-like receptors [1]): nearly six-fold decrease
affinity at mutant L190A of the D1 dopamine receptor [2]: significantly increased affinity

Cl.Oc1cc2c(cc1O)[C@H]1c3cc(C(F)(F)F)ccc3CN[C@@H]1CO2 (racemic) [5d, (±)-Trans-2,3-dihydroxy-11-trifluoromethyl-6a,7,8,12b-tetrahydro-6H-chromeno[3,4-c]isoquinoline hydrochloride]
decrease in D1 affinity compared to the methyl substituted compound 5a (D1-like receptors [1]; relative to 5a): almost four-fold decrease
decrease in D1 affinity compared to 2 (D1-like receptors [1]): 22 fold

Oc1cc2c(cc1O)[C@H]1c3ccccc3CN[C@@H]1CC2 (relative stereo) [compound 1, trans-10,11-dihydroxy-5,6,6a,7,8,12b-hexahydrobenzo[a]phenanthridine]
affinity for D1-like receptors over D2-like receptors (D1-like receptors [3]): ten-fold higher affinity
dopamine D1 agonist character (D1 receptor): potent dopamine D1 full agonist
therapeutic potential in an in vivo model of Parkinson's disease [4]: significant therapeutic potential
blood flow in the prefrontal cortex (prefrontal cortex): increase blood flow in the prefrontal cortex
working memory (aged monkeys): improve working memory in aged monkeys

Oc1cc2c(cc1O)C1c3ccccc3CNC1CO2 (single isomer, unassigned; (+)) [(+)-2]
efficacy for activation of the D1 receptor (D1 receptor; compared with dopamine): higher efficacy than dopamine

Cc1ccc2c(c1)[C@@H]1c3cc(O)c(O)cc3CC[C@H]1NC2 [compound 3]
affinity at mutant L190A of the D1 dopamine receptor [2]: but not for 3
D1 affinity in comparison to DHX (D1): did not significantly reduce the affinity

CCc1ccc2c(c1)[C@@H]1c3cc(O)c(O)cc3CC[C@H]1NC2 [compound 4]
D1 affinity in comparison to DHX (D1): affinity lower than the unsubstituted compound
